Assay results reported in the kinase profiling compilation of Christmann-Franck et al. (2016).

How the values were obtained:
Assay in all cases: KINOMEscan competition binding
Details in all cases: compound 10.0 µM
PKN2 (human) = PKN2 (human) (UniProt Q16513)
RAF1 (human) = RAF1 (human) (UniProt P04049)
STK25 (human) = STK25 (human) (UniProt O00506)
RIPK2 (human) = RIPK2 (human) (UniProt O43353)
LCK (human) = LCK (human) (UniProt P06239)
CDK8 (human) = CDK8 (human) (UniProt P49336)
[1] = tested on: RET (human), P07949 [V804M]
SRPK2 (human) = SRPK2 (human) (UniProt P78362)
SRMS (human) = SRMS (human) (UniProt Q9H3Y6)
WEE1 (human) = WEE1 (human) (UniProt P30291)
CHEK2 (human) = CHEK2 (human) (UniProt O96017)
MAPK9 (human) = MAPK9 (human) (UniProt P45984)
MAP2K3 (human) = MAP2K3 (human) (UniProt P46734)
RPS6KA5 KD2 (human) = RPS6KA5 KD2 (human) (UniProt O75582)
[2] = tested on: EGFR (human), P00533 [T790M/L858R]
STK38L (human) = STK38L (human) (UniProt Q9Y2H1)
SRPK3 (human) = SRPK3 (human) (UniProt Q9UPE1)
MYLK4 (human) = MYLK4 (human) (UniProt Q86YV6)
RPS6KA3 KD1 (human) = RPS6KA3 KD1 (human) (UniProt P51812)
MAP3K15 (human) = MAP3K15 (human) (UniProt Q6ZN16)
STK3 (human) = STK3 (human) (UniProt Q13188)
TGFBR2 (human) = TGFBR2 (human) (UniProt P37173)
MET (human) = MET (human) (UniProt P08581)
IRAK1 (human) = IRAK1 (human) (UniProt P51617)
[3] = tested on: KIT (human), P10721 [V559D/V654A]
ULK1 (human) = ULK1 (human) (UniProt O75385)
YSK4 (human) = YSK4 (human) (UniProt Q56UN5)
ROCK2 (human) = ROCK2 (human) (UniProt O75116)
PDPK1 (human) = PDPK1 (human) (UniProt O15530)
FGR (human) = FGR (human) (UniProt P09769)
PDGFRA (human) = PDGFRA (human) (UniProt P16234)
CDK19 (human) = CDK19 (human) (UniProt Q9BWU1)
HIPK2 (human) = HIPK2 (human) (UniProt Q9H2X6)
CLK2 (human) = CLK2 (human) (UniProt P49760)

Chain of IRAK1 (human) (P51617 whole entry, looked up): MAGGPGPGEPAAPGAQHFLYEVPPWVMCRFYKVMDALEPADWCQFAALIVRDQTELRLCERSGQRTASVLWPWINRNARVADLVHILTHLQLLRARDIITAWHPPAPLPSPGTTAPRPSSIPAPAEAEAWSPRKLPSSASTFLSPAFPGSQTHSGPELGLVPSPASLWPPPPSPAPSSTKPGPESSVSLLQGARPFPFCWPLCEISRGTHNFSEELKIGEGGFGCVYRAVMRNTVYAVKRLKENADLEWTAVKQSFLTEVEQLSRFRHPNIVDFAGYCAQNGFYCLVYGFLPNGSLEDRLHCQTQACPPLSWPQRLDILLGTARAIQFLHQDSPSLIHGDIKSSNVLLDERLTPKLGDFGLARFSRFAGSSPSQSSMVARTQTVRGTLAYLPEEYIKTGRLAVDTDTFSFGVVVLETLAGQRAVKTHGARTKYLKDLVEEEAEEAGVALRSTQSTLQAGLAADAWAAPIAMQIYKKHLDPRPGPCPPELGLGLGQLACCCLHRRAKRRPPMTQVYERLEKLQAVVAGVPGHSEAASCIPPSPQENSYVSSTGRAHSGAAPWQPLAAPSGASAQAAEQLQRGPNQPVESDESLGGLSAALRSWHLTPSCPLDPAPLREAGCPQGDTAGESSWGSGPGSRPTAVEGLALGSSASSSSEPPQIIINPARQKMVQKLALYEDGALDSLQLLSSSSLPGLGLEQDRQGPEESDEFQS
Chain of ROCK2 (human) (O75116 whole entry, looked up): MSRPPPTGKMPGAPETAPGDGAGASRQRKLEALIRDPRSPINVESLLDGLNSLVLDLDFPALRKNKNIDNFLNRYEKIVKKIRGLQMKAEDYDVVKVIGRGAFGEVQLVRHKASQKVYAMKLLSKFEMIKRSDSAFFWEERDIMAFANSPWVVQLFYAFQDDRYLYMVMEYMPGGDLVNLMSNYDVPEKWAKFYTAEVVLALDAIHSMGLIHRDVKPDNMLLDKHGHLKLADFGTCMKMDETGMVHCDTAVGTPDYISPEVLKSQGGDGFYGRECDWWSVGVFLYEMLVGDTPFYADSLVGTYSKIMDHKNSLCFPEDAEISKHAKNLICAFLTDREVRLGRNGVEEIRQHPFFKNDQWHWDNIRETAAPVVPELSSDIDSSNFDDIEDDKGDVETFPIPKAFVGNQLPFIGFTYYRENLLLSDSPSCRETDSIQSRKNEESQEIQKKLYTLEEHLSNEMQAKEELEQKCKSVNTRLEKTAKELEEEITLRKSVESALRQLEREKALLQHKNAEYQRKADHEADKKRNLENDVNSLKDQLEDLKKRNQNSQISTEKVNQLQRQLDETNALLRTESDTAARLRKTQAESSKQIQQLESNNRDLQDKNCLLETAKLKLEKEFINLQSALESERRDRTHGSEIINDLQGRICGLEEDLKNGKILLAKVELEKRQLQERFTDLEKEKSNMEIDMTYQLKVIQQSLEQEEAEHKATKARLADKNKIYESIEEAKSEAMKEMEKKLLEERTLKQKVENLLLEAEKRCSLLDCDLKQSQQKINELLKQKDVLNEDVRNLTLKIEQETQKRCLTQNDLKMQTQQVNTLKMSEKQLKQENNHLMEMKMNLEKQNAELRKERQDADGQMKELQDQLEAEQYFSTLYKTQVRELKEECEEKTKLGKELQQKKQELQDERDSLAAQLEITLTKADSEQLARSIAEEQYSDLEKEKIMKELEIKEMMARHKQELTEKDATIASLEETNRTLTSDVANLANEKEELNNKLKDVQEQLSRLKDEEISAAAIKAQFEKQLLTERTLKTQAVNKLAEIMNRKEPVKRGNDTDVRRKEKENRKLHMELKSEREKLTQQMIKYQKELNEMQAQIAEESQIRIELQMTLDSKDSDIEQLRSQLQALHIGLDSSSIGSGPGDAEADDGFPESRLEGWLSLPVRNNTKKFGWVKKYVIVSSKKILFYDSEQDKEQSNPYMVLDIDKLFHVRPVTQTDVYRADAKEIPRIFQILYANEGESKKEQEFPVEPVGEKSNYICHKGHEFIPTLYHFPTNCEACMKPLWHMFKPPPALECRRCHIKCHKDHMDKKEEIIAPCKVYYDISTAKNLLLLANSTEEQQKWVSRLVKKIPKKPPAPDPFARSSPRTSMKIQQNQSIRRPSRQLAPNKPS
Chain of MAPK9 (human) (P45984 whole entry, looked up): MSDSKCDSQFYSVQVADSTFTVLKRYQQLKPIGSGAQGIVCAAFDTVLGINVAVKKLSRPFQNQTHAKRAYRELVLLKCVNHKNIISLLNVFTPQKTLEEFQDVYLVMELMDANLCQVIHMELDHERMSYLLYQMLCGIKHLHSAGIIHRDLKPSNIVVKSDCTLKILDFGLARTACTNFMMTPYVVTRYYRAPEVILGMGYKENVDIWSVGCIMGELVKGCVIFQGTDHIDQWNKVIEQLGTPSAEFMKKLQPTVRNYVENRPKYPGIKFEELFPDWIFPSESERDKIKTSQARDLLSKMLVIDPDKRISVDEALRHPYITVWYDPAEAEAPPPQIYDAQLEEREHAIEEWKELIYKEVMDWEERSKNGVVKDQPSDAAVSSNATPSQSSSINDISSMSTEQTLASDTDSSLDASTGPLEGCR
Chain of SRPK2 (human) (P78362 whole entry, looked up): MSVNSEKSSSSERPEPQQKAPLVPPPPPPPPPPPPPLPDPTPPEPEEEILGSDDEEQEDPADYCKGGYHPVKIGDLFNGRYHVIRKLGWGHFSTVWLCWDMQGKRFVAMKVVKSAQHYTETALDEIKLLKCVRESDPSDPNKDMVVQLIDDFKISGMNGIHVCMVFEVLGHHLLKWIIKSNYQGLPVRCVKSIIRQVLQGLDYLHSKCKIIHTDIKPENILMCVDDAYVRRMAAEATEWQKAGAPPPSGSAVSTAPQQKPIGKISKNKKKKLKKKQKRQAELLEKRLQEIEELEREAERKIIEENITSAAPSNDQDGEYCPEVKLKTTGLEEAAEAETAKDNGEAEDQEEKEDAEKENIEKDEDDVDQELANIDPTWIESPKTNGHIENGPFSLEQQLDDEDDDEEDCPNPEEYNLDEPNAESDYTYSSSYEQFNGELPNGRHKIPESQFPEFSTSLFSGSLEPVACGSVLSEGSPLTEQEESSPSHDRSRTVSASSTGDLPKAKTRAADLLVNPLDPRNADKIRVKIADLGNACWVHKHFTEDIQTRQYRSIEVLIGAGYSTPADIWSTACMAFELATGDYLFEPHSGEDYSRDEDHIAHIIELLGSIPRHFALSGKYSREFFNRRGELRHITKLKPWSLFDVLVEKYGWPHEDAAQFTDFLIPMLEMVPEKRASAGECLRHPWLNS
Chain of RIPK2 (human) (O43353 whole entry, looked up): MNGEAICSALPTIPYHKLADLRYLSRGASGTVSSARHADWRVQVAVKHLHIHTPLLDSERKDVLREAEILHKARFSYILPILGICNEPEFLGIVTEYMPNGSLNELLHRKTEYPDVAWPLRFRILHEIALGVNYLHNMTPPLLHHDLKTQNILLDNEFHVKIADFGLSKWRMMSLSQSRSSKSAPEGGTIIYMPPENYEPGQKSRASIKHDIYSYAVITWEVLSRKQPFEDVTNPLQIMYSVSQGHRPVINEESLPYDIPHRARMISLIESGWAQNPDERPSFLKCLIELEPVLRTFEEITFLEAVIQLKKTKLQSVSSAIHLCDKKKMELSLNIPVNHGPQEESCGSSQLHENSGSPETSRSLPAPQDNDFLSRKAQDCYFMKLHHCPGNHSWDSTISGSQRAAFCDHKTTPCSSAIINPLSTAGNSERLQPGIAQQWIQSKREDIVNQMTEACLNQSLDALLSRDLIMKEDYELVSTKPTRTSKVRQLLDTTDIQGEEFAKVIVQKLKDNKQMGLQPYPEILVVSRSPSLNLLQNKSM
Chain of MAP3K15 (human) (Q6ZN16 whole entry, looked up): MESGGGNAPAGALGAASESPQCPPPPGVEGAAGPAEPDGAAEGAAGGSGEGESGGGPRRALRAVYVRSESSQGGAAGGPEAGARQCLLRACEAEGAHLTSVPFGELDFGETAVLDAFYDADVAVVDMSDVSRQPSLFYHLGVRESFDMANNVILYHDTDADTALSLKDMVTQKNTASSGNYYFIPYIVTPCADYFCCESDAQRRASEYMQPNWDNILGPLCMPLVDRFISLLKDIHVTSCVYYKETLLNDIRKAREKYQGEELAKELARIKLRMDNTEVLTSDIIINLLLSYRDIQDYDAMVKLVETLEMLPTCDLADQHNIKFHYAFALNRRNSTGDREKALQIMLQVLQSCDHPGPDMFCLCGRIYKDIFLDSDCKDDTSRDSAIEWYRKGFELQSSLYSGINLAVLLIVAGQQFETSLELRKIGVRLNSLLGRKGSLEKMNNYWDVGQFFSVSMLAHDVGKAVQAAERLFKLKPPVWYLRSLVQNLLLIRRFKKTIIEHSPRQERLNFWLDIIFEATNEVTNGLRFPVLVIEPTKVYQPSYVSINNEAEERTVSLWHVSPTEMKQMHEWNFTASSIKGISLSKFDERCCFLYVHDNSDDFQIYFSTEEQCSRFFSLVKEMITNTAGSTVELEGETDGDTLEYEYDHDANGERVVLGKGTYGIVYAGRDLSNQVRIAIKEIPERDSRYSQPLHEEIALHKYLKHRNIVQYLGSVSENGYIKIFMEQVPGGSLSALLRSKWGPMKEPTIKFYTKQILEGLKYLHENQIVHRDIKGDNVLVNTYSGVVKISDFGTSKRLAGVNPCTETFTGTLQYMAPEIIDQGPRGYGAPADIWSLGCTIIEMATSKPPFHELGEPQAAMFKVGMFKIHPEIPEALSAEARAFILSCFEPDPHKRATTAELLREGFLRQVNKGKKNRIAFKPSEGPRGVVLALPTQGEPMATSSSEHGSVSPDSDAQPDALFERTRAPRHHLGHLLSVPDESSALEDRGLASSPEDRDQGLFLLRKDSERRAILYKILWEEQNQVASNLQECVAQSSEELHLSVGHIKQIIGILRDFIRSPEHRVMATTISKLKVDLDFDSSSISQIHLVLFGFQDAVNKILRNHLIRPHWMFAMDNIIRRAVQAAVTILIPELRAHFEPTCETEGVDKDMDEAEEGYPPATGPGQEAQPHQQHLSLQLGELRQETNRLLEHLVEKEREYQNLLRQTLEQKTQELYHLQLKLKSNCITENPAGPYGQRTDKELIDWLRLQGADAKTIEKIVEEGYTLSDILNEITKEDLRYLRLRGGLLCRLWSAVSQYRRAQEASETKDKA

Row | SMILES | kinase still bound, per cent of control (PKN2 (human)) [%] | kinase still bound, per cent of control (RAF1 (human)) [%] | kinase still bound, per cent of control (STK25 (human)) [%] | kinase still bound, per cent of control (RIPK2 (human)) [%] | kinase still bound, per cent of control (LCK (human)) [%] | kinase still bound, per cent of control (CDK8 (human)) [%] | kinase still bound, per cent of control [1] [%] | kinase still bound, per cent of control (SRPK2 (human)) [%] | kinase still bound, per cent of control (SRMS (human)) [%] | kinase still bound, per cent of control (WEE1 (human)) [%] | kinase still bound, per cent of control (CHEK2 (human)) [%] | kinase still bound, per cent of control (MAPK9 (human)) [%] | kinase still bound, per cent of control (MAP2K3 (human)) [%] | kinase still bound, per cent of control (RPS6KA5 KD2 (human)) [%] | kinase still bound, per cent of control [2] [%] | kinase still bound, per cent of control (STK38L (human)) [%] | kinase still bound, per cent of control (SRPK3 (human)) [%] | kinase still bound, per cent of control (MYLK4 (human)) [%] | kinase still bound, per cent of control (RPS6KA3 KD1 (human)) [%] | kinase still bound, per cent of control (MAP3K15 (human)) [%] | other results
1 | CS(=O)(=O)N1CCN(Cc2cc3nc(-c4cccc5[nH]ncc45)nc(N4CCOCC4)c3s2)CC1 | 100 | 100 | 100 | 100 | 100 | 100 | 100 | 100 | 100 | 100 | 100 | 100 | 100 | 100 | 100 | 100 | 100 | 100 | 100 | 100 | kinase still bound, per cent of control (STK3 (human)): 100%; kinase still bound, per cent of control (TGFBR2 (human)): 100%; kinase still bound, per cent of control (MET (human)): 100%; kinase still bound, per cent of control (IRAK1 (human)): 100%; kinase still bound, per cent of control [3]: 100%; kinase still bound, per cent of control (ULK1 (human)): 100%; kinase still bound, per cent of control (YSK4 (human)): 100%; kinase still bound, per cent of control (ROCK2 (human)): 100%; kinase still bound, per cent of control (PDPK1 (human)): 100%; kinase still bound, per cent of control (FGR (human)): 100%; kinase still bound, per cent of control (PDGFRA (human)): 0%; kinase still bound, per cent of control (CDK19 (human)): 100%; kinase still bound, per cent of control (HIPK2 (human)): 100%
2 | COc1cc(N2CCN(C)CC2)ccc1Nc1ncc2c(n1)N(C)c1ccccc1C(=O)N2C | 100 | 100 | 100 | 100 | 100 | 100 | 100 | 100 | 100 | 100 | 30 | 100 | 100 | 100 | 100 | 100 | 100 | 100 | 100 | 100 | kinase still bound, per cent of control (CLK2 (human)): 100%; kinase still bound, per cent of control (STK3 (human)): 100%; kinase still bound, per cent of control (TGFBR2 (human)): 100%; kinase still bound, per cent of control (MET (human)): 100%; kinase still bound, per cent of control (IRAK1 (human)): 100%; kinase still bound, per cent of control [3]: 100%; kinase still bound, per cent of control (ULK1 (human)): 2.9%; kinase still bound, per cent of control (YSK4 (human)): 100%; kinase still bound, per cent of control (ROCK2 (human)): 100%; kinase still bound, per cent of control (PDPK1 (human)): 100%; kinase still bound, per cent of control (FGR (human)): 100%; kinase still bound, per cent of control (PDGFRA (human)): 100%; kinase still bound, per cent of control (CDK19 (human)): 100%; kinase still bound, per cent of control (HIPK2 (human)): 100%
3 | CCN(CC)CCCCNc1ncc2c(n1)N(C)C(=O)N(c1c(Cl)c(OC)cc(OC)c1Cl)C2 | 100 | 100 | 100 | 100 | 3 | 100 | 100 | 100 | 100 | 100 | 100 | 100 | 100 | 100 | 100 | 100 | 100 | 100 | 100 | 100 | kinase still bound, per cent of control (CLK2 (human)): 100%; kinase still bound, per cent of control (STK3 (human)): 100%; kinase still bound, per cent of control (TGFBR2 (human)): 100%; kinase still bound, per cent of control (MET (human)): 100%; kinase still bound, per cent of control (IRAK1 (human)): 100%; kinase still bound, per cent of control [3]: 100%; kinase still bound, per cent of control (ULK1 (human)): 100%; kinase still bound, per cent of control (YSK4 (human)): 100%; kinase still bound, per cent of control (ROCK2 (human)): 100%; kinase still bound, per cent of control (PDPK1 (human)): 100%; kinase still bound, per cent of control (FGR (human)): 100%; kinase still bound, per cent of control (PDGFRA (human)): 100%; kinase still bound, per cent of control (CDK19 (human)): 100%; kinase still bound, per cent of control (HIPK2 (human)): 100%
